In brackets after ≈: the same amount, converted by molar mass. Entries after “also recorded” stand apart in the source; their conditions may differ. Blank lines part the entries; values can stand above or below the compound they belong to.
Key:
[1] = tested on: Xenopus laevis Stages 59-60 tadpoles; experiment: tadpole assay; assay type: in vivo; settings: for vascular effect in tadpole (in words): about 60 minutes, 10 μg/ml where stated
[2] = tested on: human microvascular cells; experiment: endothelial cell cord formation assay (human microvascular cells, VEGF and bFGF, collagen matrix); assay type: cell-based
From the text: Endothelial cells have the capacity in vitro to form tubular aggregates resembling capillaries in various early stages of formation. This conversion occurs under relatively specific conditions, in which essential growth factors along with an effective substratum are provided. It has been shown that both the interaction of growth factors with the endothelial cell and its attachment to a substratum activate the NHE. The activation of this exchanger is believed to be required for subsequent morphologic transformation of the endothelial cell into a multicellular tubular structure.
To assess the effect of compounds on the cord-like structures formed by human microvascular cells when plated in the presence of VEGF (Vascular Endothelial Growth Factor) and basic fibroblast growth factor on a collagen matrix, a standard cord formation assay was performed using the method described by Goto, et al., "Synergistic Effects of Vascular Endothelial Growth Factor and Basic Fibroblast Growth Factor on the Proliferation and Cord Formation of Bovine Capillary Endothelial Cells Within Collagen Gels," Laboratory Investigation, Vol. 69, No. 5, 1993, pp. 508-517. This article is entirely incorporated herein by reference.

[3] = tested on: bacteria, fungi and protozoa; settings: cited from earlier work
[4] = tested on: chick embryo vitelline capillaries; experiment: chick embryo vitelline capillary regression assay; assay type: in vivo; settings: for effect on vitelline capillaries (in words): 3- to 5-day chick embryo
Procedure: Using the chick embryo vitelline capillaries assay, various aminosterol compounds were tested for their ability to induce capillary regression. Each compound was applied in 0.1 ml of 15% Ficol 400 and PBS onto the embryo, and vascular regression was assessed after 60 minutes. These tests were conducted by the chorioallantoic membrane anti-angiogenesis assay by applying the material to be assayed to 3 day old fertilized chick embryos in the manner described by Wilks et al., "Inhibition of Angiogenesis With Combination Angiostatic Steroids and Suramin," Radiation Biology, Vol. 60, Nos. 1/2, 1991, pp. 73-77, which article is entirely incorporated herein by reference.
The 3-day chick embryo consists of an embryonic disc from which numerous vessels emerge and return, forming a "figure 8"-shaped structure--the embryo in the center with vascular loops extending outward over both poles. […] Following a lag period of around 15 minutes, the constriction of continuity between capillary and secondary vessels, generally on the "venous" side, was observed. Continued pulsatile blood flow progressed, resulting in a "swelling" of the blind tube, followed by a pinching off of the remaining connection and formation of an enclosed vascular sac resembling a "blood island." This process progressed until only the largest vessels remained intact.

[5] = inhibition of MSI-1436 binding; settings: 3H-MSI-1436 at 20 μg/mL
splenocytes = experiment: mitogen proliferation assay (splenocytes of treated mice, Con A); assay type: in vivo; settings: 10 mg/kg iv
Procedure: For the attached Tables, the mitogen proliferation assay was performed by treating mice (male or female) with various amounts of the aminosterol test compounds. Some time later (typically between 2 hours and 14 days), the mice are sacrificed and their spleens removed. Splenocytes are harvested and cultured in the presence of between 1-10 μg/ml of Con A (Sigma) for 48 hours. See James Morgan, "Monoclonal Antibody Production," Modern Methods in Pharmacology, pp. 29-67, eds., Spector and Back, 1988. This excerpt is entirely incorporated herein by reference. Cell proliferation is monitored either by direct cell counting or by measurement of the incorporation of radioactive thymidine.

PBMC toxicity = settings: human
HIV = experiment: inhibition of HIV replication in vitro (HIV Inhib.); assay type: cell-based
melanoma cells = experiment: MTT assay for cell number; assay type: cell-based; settings: Tables III-V; read-out: MTT assay IC50
Procedure: In Table V, several aminosterol esters show efficacy in killing melanoma cells in the MTT assay.
The MTT assay for cell number is performed as follows. Cells are counted on a hemocytometer and diluted to a concentration of approx. 10,000 cells/well (55,000 cells/ml×0.18 ml). Cells are then plated in a 96 well microtiter plate and allowed to attach overnight. The next day, compounds are serially diluted from 1000 to 15.6 μg/ml and run in duplicate. 20 μl of each dilution are transferred to the pre-seeded microtiter plates. The final concentrations are 100 to 1.56 μg/ml. The plates are then incubated for 48 hours at 37° C. in 5% CO2. After 48 hours, MTT solution is added. The plate is re-incubated for 4 hours. Readings are done by removing all but 30 μl of media and MTT solution and dissolving the formazan crystals with DMSO. The formazan is dissolved by mixing on a rotating plate at low speed for about 30 minutes. Absorbance of converted dye is measured at a wavelength of 560 nm with background subtraction at 630 nm. The percent survival is determined by a comparison between the mean absorbance of the duplicate test lanes and the growth control.

Structure (SMILES): CC(C)[C@@H](CC[C@@H](C)[C@H]1CC[C@H]2[C@@H]3[C@H](O)C[C@H]4C[C@@H](NCCCNCCCCN)CC[C@]4(C)[C@H]3CC[C@]12C)OS(=O)(=O)O [Squalamine, squalamine, reference compound]
- unaffected functions in tadpole (in words) ([1]; 10 μg/ml): continued heartbeat; also recorded: unaltered blood flow through the fine capillaries of the hands and feet
- vascular effect in tadpole (in words) [1]: blood flow through the capillaries of the tail shut down; also recorded: enhanced regression of the most distal aspects of the tail; also recorded: common vascular occlusive effect
- minimal effective concentration ([2]; Homo sapiens, Endothelial cell, text to the table, read-out: concentration at which cord formation is inhibited): ~0.1 µg/mL
- effect on cell viability or proliferation (in words) ([2]; at these concentrations): does not appear to profoundly affect cell viability or proliferation
- antibiotic activity (in words) [3]: broad-spectrum antibiotic, killing bacteria, fungi and protozoa
- effect on vitelline capillaries (in words) [4]: disrupt vitelline capillaries in 3- to 5-day chick embryos
- effect on vitelline capillaries (in words) ([4]; listed as squalamine): dramatic and rapid effect on capillary vessel integrity; also recorded: especially active
- hemorrhage, hemolysis and heartbeat of embryo (in words) ([4]; 3-day chick embryo): embryonic heart continued to beat vigorously; also recorded: No hemorrhage was seen; also recorded: absence of hemolysis

- % Inhib. of MSI-1436 Binding @ 100 μg/mL [5]: 82%
- IC50 (melanoma cells): 7.8 µg/mL (≈ 11.4 µM)
Structure (SMILES): CC(C)[C@@H](CC[C@@H](C)[C@H]1CC[C@H]2[C@@H]3[C@H](O)C[C@H]4C[C@@H](NCCCNCCCCNCCCN)CC[C@]4(C)[C@H]3CC[C@]12C)OS(=O)(=O)O [Compound 1436, reference compound]
- Rel. potency to MSI-1436, Mitogen Proliferation Assay (splenocytes): 1
- cytotoxicity at 14 µM (PBMC toxicity): 0%
- vascular effect in tadpole (in words) [1]: common vascular occlusive effect
- % Inhib of HIV (HIV; 140 nM, 0.14 µM): 78%
- inhibition at 0.14 µM (HIV; Human immunodeficiency virus 1, 140 nM, read-out: % Inhib of HIV): 76%

From patent US5856535A, “Aminosterol ester compounds” (priority 1996, dated 1999)
